Measured values: patent publication US11834453B2, “Substituted pyrimido[5,4-d]pyrimidines as HER2 inhibitors” (Array BioPharma Inc., priority 2020, dated 2023)
Read-outs that look alike come from different tables or passages of the source.

What was measured:
ErbB2 WT = ErbB2 WT (Homo sapiens (Human), UniProt P04626); assay: ErbB enzyme assay (CisBio HTRF KinEASE-TK), Assay 2; assay type: biochemical
In short: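 Readout is HTRF KinEASE-TK, using Sa-XL665 and cryptate antibody for 1 h at 22 °C, as percent of control between DMSO-only (100) and pre-quenched (0) reactions. The kinase reaction runs 30 min at 22 °C with 1 mM ATP and 250 nM biotinylated TK substrate, in HEPES pH 7.4 with MgCl2 and 2% DMSO.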

MDR1 (P-gp) = MDR1 (P-gp) (Homo sapiens (Human), UniProt P08183); assay: MDR1 transfected LLC-PK1 permeability/efflux, Assay 6; conditions: pig
Sequence of MDR1 (P-gp) (P08183 whole entry): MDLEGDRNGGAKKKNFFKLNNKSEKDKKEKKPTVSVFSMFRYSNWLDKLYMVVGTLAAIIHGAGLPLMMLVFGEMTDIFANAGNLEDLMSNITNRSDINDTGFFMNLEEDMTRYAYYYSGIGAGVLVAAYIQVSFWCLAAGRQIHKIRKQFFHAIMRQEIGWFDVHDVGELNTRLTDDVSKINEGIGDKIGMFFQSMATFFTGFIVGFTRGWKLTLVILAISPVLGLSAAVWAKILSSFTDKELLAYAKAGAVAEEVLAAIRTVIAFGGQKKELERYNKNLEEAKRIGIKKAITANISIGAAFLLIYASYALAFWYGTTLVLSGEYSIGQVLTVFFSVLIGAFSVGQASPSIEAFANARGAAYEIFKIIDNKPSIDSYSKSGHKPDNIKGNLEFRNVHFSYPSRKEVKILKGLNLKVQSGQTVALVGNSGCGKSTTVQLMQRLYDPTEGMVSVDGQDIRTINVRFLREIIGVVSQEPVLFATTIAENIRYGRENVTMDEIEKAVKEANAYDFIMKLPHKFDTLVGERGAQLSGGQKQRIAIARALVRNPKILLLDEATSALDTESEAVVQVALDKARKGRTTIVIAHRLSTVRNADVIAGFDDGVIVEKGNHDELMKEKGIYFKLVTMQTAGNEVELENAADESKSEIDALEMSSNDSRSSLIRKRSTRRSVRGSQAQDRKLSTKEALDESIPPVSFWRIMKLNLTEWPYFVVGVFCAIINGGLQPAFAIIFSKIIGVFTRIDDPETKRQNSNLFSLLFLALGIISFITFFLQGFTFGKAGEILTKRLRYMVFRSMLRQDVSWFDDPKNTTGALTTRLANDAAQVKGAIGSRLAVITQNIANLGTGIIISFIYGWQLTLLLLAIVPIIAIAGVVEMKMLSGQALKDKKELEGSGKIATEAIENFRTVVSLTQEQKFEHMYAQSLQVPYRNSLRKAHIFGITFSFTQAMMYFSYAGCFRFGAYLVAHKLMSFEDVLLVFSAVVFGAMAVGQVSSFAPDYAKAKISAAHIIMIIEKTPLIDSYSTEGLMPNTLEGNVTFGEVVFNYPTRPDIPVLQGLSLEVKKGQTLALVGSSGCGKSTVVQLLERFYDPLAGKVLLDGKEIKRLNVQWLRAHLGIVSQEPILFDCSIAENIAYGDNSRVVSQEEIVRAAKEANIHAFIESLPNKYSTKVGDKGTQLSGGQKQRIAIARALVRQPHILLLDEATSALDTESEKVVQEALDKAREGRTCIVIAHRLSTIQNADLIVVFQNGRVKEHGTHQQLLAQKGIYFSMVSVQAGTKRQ

EGFR = EGFR (Homo sapiens (Human), UniProt P00533); assay: ErbB enzyme assay (CisBio HTRF KinEASE-TK), Assay 3; assay type: biochemical
Sequence of EGFR (P00533 25-1210): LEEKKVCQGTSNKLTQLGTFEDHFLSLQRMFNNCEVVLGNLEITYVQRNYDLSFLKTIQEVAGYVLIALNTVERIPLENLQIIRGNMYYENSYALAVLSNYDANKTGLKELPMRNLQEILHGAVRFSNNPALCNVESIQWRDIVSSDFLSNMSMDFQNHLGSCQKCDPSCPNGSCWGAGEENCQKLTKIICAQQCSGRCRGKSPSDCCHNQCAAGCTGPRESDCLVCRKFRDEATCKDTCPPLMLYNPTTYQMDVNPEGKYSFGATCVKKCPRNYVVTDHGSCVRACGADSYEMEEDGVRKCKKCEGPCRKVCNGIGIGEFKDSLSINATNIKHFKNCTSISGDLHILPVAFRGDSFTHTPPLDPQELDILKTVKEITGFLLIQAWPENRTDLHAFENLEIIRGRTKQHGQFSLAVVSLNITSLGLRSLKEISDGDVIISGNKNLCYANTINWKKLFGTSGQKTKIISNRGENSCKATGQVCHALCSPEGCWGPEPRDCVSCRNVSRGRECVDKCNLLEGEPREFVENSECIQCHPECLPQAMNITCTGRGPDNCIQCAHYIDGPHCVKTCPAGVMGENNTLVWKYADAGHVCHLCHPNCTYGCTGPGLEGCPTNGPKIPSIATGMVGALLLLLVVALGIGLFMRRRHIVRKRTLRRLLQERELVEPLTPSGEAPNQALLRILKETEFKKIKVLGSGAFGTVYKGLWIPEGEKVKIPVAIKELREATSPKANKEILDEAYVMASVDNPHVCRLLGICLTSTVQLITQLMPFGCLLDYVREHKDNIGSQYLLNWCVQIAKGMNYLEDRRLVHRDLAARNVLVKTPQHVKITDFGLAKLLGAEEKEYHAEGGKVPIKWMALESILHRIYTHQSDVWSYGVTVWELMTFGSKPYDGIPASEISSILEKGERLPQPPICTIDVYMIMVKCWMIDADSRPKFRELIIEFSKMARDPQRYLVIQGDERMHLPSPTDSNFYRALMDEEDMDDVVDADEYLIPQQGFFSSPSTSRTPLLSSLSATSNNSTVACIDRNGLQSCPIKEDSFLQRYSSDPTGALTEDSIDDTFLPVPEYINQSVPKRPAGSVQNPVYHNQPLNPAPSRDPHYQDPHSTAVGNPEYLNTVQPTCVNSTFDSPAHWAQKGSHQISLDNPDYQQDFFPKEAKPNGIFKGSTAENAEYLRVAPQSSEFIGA
In short: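 Using a time-resolved FRET read-out, tyrosine phosphorylation of 250 nM biotin substrate at 1 mM ATP (pH 7.4, 10 mM MgCl2, 2% DMSO, 22 °C, 30 min) was quantified against DMSO and pre-quenched controls; IC50 taken at 50% of control.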

EGFR wild type (EGFR WT) = EGFR wild type (EGFR WT) (Homo sapiens (Human), UniProt P00533); assay: Cellular phosphorylation assay, EGF-stimulated EGFR phosphorylation in engineered NIH 3T3 cells, Phospho-EGFR DuoSet IC ELISA, Assay 5; assay type: cell-based
In short: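 Phospho-EGFR ELISA on lysates of engineered NIH 3T3 EGFR WT cells, IC50 derived from concentration curves. Cells plated at 20,000/well overnight, given compound dilutions 1 h at 37 °C, then rEGF 100 ng/ml for a further 10 min before lysis.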

[1] = molecular target: ErbB2 insYVMA (HER2-YVMA, SEQ ID NO: 2) (Homo sapiens, UniProt P04626, INS775YVMA/P1170A); assay: biochemical; conditions: ErbB2 insYVMA enzyme assay
Sequence of ErbB2 insYVMA (HER2-YVMA, SEQ ID NO: 2) (P04626 with tags, fused parts or gaps INS775YVMA/P1170A limits assumed): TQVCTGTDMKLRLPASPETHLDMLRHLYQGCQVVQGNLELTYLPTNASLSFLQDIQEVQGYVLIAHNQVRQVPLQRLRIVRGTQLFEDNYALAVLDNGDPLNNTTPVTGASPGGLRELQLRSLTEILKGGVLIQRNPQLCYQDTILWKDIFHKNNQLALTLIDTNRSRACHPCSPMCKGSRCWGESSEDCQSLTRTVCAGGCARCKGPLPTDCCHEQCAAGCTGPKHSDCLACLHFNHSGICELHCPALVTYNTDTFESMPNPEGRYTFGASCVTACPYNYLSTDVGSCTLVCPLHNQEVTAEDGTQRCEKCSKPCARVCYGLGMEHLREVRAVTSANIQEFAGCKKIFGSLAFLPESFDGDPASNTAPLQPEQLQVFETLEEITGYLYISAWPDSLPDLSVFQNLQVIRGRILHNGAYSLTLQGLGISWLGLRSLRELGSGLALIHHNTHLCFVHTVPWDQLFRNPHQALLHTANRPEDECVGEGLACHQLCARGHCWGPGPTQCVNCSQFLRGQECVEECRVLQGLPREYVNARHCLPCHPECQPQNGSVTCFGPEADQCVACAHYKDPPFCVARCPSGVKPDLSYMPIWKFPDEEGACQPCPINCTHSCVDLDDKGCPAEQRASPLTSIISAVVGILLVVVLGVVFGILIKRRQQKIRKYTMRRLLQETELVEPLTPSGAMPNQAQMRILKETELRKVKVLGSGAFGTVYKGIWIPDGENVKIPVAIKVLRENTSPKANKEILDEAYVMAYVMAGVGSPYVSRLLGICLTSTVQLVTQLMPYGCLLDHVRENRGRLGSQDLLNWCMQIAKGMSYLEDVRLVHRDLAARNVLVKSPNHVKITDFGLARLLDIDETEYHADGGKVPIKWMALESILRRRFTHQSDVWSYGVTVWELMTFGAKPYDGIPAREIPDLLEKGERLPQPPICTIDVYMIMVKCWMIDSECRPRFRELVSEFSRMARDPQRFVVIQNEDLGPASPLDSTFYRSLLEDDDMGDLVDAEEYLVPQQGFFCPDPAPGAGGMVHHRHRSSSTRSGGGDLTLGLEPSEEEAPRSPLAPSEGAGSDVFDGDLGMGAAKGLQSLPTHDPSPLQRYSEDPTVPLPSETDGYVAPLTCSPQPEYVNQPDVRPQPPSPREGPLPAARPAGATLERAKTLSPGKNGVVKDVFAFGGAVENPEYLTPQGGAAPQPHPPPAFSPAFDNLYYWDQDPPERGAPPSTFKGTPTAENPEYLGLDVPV

[2] = molecular target: ErbB2 with Exon 20 YVMA insertion (HER2-YVMA) (Homo sapiens (Human), UniProt P04626, INS775YVMA); assay: Cellular phosphorylation assay, constitutive ErbB2 phosphorylation (Y1196) in engineered NIH 3T3 cells, Assay 4; assay type: cell-based
In short: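 In-cell Western in NIH 3T3 cells carrying ErbB2 exon 20 YVMA insertion, with no ligand stimulation. One hour compound exposure at 37 °C before fixation and anti-pY1196 plus GAPDH staining with dual-wavelength fluorescence. IC50 derived after GAPDH normalization.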

BCRP = BCRP (Homo sapiens (Human), UniProt Q9UNQ0); assay: BCRP transfected MDCKII canine Mdr1 knockout permeability/efflux, Assay 9; conditions: dog, Assay 9 Pe Ratio, efflux ratio Papp(B-A)/Papp(A-B), BCRP transfected MDCKII canine Mdr1 knockout
[3] = LLC-PK1, Assay 6 Pe Ratio, efflux ratio Papp(B-A)/Papp(A-B), MDR1 transfected LLC-PK1

Sequence of ErbB2 WT (P04626 23-1255): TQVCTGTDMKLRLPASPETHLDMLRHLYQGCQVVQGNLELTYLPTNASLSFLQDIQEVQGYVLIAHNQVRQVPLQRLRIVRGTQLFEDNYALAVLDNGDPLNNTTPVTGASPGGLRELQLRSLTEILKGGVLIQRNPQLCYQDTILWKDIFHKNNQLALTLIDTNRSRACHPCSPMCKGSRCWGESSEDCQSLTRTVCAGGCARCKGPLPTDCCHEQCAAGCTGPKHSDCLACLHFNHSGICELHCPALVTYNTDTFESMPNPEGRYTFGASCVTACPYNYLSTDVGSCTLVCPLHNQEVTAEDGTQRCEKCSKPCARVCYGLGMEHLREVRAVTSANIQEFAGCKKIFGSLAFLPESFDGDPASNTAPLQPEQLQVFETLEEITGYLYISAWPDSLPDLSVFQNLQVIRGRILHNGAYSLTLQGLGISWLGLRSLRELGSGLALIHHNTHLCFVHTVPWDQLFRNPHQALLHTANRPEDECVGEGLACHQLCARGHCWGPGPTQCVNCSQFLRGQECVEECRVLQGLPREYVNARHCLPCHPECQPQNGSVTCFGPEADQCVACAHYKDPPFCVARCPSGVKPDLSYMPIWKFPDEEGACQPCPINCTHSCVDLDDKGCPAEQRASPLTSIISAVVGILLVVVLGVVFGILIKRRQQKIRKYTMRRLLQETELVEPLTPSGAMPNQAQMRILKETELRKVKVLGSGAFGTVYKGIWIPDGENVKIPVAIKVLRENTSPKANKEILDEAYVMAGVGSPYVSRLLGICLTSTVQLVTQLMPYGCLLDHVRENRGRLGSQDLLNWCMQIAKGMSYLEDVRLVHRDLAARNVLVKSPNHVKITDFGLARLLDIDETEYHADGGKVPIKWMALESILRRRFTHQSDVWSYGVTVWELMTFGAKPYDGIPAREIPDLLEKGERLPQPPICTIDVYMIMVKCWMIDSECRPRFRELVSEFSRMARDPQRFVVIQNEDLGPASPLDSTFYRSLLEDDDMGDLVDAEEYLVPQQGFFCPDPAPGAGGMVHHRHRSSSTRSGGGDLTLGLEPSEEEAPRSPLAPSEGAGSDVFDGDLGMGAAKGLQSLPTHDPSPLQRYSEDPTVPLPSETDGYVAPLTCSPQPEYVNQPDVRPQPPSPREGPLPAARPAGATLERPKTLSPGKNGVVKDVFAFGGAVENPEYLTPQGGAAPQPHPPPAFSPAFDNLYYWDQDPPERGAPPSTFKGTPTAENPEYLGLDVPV

SMILES | IC50 (ErbB2 WT) | efflux ratio at 2 h, 1 μM (MDR1 (P-gp); [3]) | IC50 (EGFR) | IC50 (EGFR wild type (EGFR WT)) | IC50 ([1]; read-out: Assay 1 IC50) | IC50 [2] | efflux ratio at 2 h, 1 μM (BCRP) | IC50 ([1]; Assay 1 IC50 (nM)) | efflux ratio at 2 h, 1 μM (MDR1 (P-gp); LLC-PK1)
Cc1cc(Nc2ncnc3cnc(NCC(C)(C)C#N)nc23)ccc1Oc1ccc2c(c1)ncn2C [Example 200, 2,2-dimethyl-3-((8-((3-methyl-4-((1-methyl-1H-benzo[d]imidazol-5-yl)oxy)phenyl)amino)pyrimido[5,4-d]pyrimidin-2-yl)amino)propanenitrile] | 52.6 nM | 8.1 | ≥ 10000 nM | 4520 nM | 18.6 nM | 14.9 nM |  |  | 
Cc1cc(Nc2ncnc3cnc(N4CC(C)(O)CO4)nc23)ccc1Oc1ccc2c(c1)ncn2C (centres unmarked) [Example 191, 4-methyl-2-(8-((3-methyl-4-((1-methyl-1H-benzo[d]imidazol-5-yl)oxy)phenyl)amino)pyrimido[5,4-d]pyrimidin-2-yl)isoxazolidin-4-ol] |  | 36.5 | ≥ 10000 nM | ≥ 5000 nM | 33 nM | 36.4 nM |  |  | 
Cc1cc(Nc2ncnc3cnc(N4CCC(C)S4(=O)=O)nc23)ccc1Oc1ccc2c(c1)ncn2C (centres unmarked) [Example 267] | 33.4 nM | 6 | 3950 nM | ≥ 5000 nM | 34.3 nM | 4.1 nM |  |  | 
Cc1cc(Nc2ncnc3cnc(N[C@H]4CCOC4)nc23)ccc1Oc1ccc2c(c1)ncn2C [Example 17, (S)—N8-(3-methyl-4-((1-methyl-1H-benzo[d]imidazol-5-yl)oxy)phenyl)-N2-(tetrahydrofuran-3-yl)pyrimido[5,4-d]pyrimidine-2,8-diamine] | 6 nM | 6.6 | 2350 nM | ≥ 5000 nM | 7 nM | 9.2 nM |  |  | 
Cc1cc(Nc2ncnc3cnc(N[C@@H]4CCOC4)nc23)ccc1Oc1ccc2c(c1)ncn2C [Example 275] | 16.5 nM | 6 | 1650 nM | ≥ 5000 nM | 13.1 nM | 18 nM |  |  | 
Cc1cc(Nc2ncnc3cnc(N4CC[C@H](S(C)(=O)=O)C4)nc23)ccc1Oc1ccc2c(c1)ncn2C [Example 119, (S)—N-(3-methyl-4-((1-methyl-1H-benzo[d]imidazol-5-yl)oxy)phenyl)-6-(3-(methylsulfonyl)pyrrolidin-1-yl)pyrimido[5,4-d]pyrimidin-4-amine] | 30.7 nM | 29.6 | 9320 nM | ≥ 5000 nM | 26.8 nM | 24.7 nM |  |  | 
CCNc1ncc2ncnc(Nc3ccc(Oc4ccc5c(ccn5C)c4)c(C)c3)c2n1 [Example 269] | 16.7 nM | 2.4 | 2400 nM | ≥ 5000 nM | 12.1 nM | 20.7 nM |  |  | 
CON1CCN(c2ncc3ncnc(Nc4ccc(Oc5ccc6c(c5)ncn6C)c(Cl)c4)c3n2)CC1.O=C(O)C(F)(F)F [Example 141, N-(3-chloro-4-((1-methyl-1H-benzo[d]imidazol-5-yl)oxy)phenyl)-6-(4-methoxypiperazin-1-yl)pyrimido[5,4-d]pyrimidin-4-amine 2,2,2-trifluoroacetate] | 25.9 nM |  | 4440 nM | ≥ 5000 nM |  | 17.1 nM | 1.4 | 23.2 nM | 
Cc1cc(Nc2ncnc3cnc(N4CCN(C)[C@@H](C)C4)nc23)ccc1Oc1ccc2c(c1)ncn2C [Example 280] | 78.2 nM | 4 | ≥ 10000 nM | ≥ 5000 nM | 38.2 nM | 14.7 nM |  |  | 
Cc1cc(Nc2ncnc3cnc(N4CCC(C)(O)CC4)nc23)ccc1Oc1ccc2c(c1)ncn2C [Example 209, 4-methyl-1-(8-((3-methyl-4-((1-methyl-1H-benzo[d]imidazol-5-yl)oxy)phenyl)amino)pyrimido[5,4-d]pyrimidin-2-yl)piperidin-4-ol] | 57.9 nM | 3.3 | 9530 nM | ≥ 5000 nM | 29.2 nM | 11.7 nM |  |  | 
Cc1cc(Nc2ncnc3cnc(N(C)CCO)nc23)ccc1Oc1ccc2c(c1)ncn2C [Example 208, 2-(methyl(8-((3-methyl-4-((1-methyl-1H-benzo[d]imidazol-5-yl)oxy)phenyl)amino)pyrimido[5,4-d]pyrimidin-2-yl)amino)ethan-1-ol] |  | 11.2 | 3550 nM | ≥ 5000 nM | 17.3 nM | 6 nM |  |  | 
Cc1cc(Nc2ncnc3cnc(N4CC5CC(C4)O5)nc23)ccc1Oc1ccc2c(c1)ncn2C.O=C(O)C(F)(F)F [Example 69, 6-(6-oxa-3-azabicyclo[3.1.1]heptan-3-yl)-N-(3-methyl-4-((1-methyl-1H-benzo[d]imidazol-5-yl)oxy)phenyl)pyrimido[5,4-d]pyrimidin-4-amine 2,2,2-trifluoroacetate] | 161 nM |  | ≥ 10000 nM |  |  | 35.8 nM |  | 27.6 nM | 2.6
Cc1cc(Nc2ncnc3cnc(N4CC[C@@H](C)C4=O)nc23)ccc1Oc1ccc2c(c1)ncn2C [Example 51, (R)-3-methyl-1-(8-((3-methyl-4-((1-methyl-1H-benzo[d]imidazol-5-yl)oxy)phenyl)amino)pyrimido[5,4-d]pyrimidin-2-yl)pyrrolidin-2-one] | 79.3 nM | 4.4 | ≥ 10000 nM |  | 41.1 nM | 52.1 nM |  |  | 
Cc1cc(Nc2ncnc3cnc(N4CCCC5(COC5)C4)nc23)ccc1Oc1ccc2c(c1)ncn2C [Example 45, N-(3-methyl-4-((1-methyl-1H-benzo[d]imidazol-5-yl)oxy)phenyl)-6-(2-oxa-6-azaspiro[3.5]nonan-6-yl)pyrimido[5,4-d]pyrimidin-4-amine] | 25 nM |  | 4740 nM |  | 31 nM | 56.2 nM |  |  | 2.2
Cc1cc(Nc2ncnc3cnc(N(C)C[C@@H](C)O)nc23)ccc1Oc1ccc2c(c1)ncn2C [Example 189, (R)-1-(methyl(8-((3-methyl-4-((1-methyl-1H-benzo[d]imidazol-5-yl)oxy)phenyl)amino)pyrimido[5,4-d]pyrimidin-2-yl)amino)propan-2-ol] |  | 4.2 | 6460 nM | ≥ 5000 nM | 12.7 nM | 13.9 nM |  |  | 
Cc1cc(Nc2ncnc3cnc(N4CCCO4)nc23)ccc1Oc1ccc2c(c1)ncn2C [Example 178, 6-(isoxazolidin-2-yl)-N-(3-methyl-4-((1-methyl-1H-benzo[d]imidazol-5-yl)oxy)phenyl)pyrimido[5,4-d]pyrimidin-4-amine] |  | 3.7 | ≥ 10000 nM | ≥ 5000 nM | 20.9 nM | 9.9 nM |  |  | 
COCCOC1CN(c2ncc3ncnc(Nc4ccc(Oc5ccc6c(c5)ncn6C)c(C)c4)c3n2)C1 [Example 240] | 77.7 nM | 2.9 | ≥ 10000 nM |  | 41.3 nM | 66.5 nM |  |  | 
Cc1cc(Nc2ncnc3cnc(N(C)CC(C)(C)O)nc23)ccc1Oc1cc(F)c2c(c1)ncn2C [Example 203, 1-((8-((4-((7-fluoro-1-methyl-1H-benzo[d]imidazol-5-yl)oxy)-3-methylphenyl)amino)pyrimido[5,4-d]pyrimidin-2-yl)(methyl)amino)-2-methylpropan-2-ol] | 65.4 nM |  | 4580 nM | ≥ 5000 nM | 20.3 nM | 8.3 nM | 1.9 |  | 
Cc1cc(Nc2ncnc3cnc(NOCC(C)(C)O)nc23)ccc1Oc1ccc2c(c1)ncn2C [Example 217, 2-methyl-1-(((8-((3-methyl-4-((1-methyl-1H-benzo[d]imidazol-5-yl)oxy)phenyl)amino)pyrimido[5,4-d]pyrimidin-2-yl)amino)oxy)propan-2-ol] | 53.3 nM | 6 |  | ≥ 5000 nM | 23.2 nM | 35.1 nM |  |  | 
Cc1cc(Nc2ncnc3cnc(N4CC5COC(C5)C4)nc23)ccc1Oc1ccc2c(c1)ncn2C (centres unmarked) [Example 67, 6-(6-oxa-3-azabicyclo[3.2.1]octan-3-yl)-N-(3-methyl-4-((1-methyl-1H-benzo[d]imidazol-5-yl)oxy)phenyl)pyrimido[5,4-d]pyrimidin-4-amine] | 34.3 nM | 2.1 | ≥ 10000 nM |  | 15.1 nM | 86.7 nM |  |  | 
